Earlier results in patent US20220023238A1, “Process of Manufacturing a Stable, Ready to Use Infusion Bag for an Oxidation Sensitive Formulation” (InnoPharma, Inc., priority 2016, published 2022).

Legend:
[1] = six adult volunteers, intravenous vs oral
[2] = intravenous, therapeutic dosing up to 4,000 mg daily

- mean intravenous Cmax compared to oral route [1]: two
Structure (SMILES): CC(=O)Nc1ccc(O)cc1 [acetaminophen, N-(4-hydroxy-phenyl)acetamide]
- hepatotoxicity [2]: rarely associated with hepatotoxicity
